According to PMC11375437, “Selective labelling of GBA2 in cells with fluorescent β-D-arabinofuranosyl cyclitol aziridines” (Chemical Science, 2024):

Target: T1, GBA1 (Homo sapiens, UniProt P04062)
T1 construct: endogenous in cells; host or cells: wild-type HEK293T
T1 sequence (P04062 40-536): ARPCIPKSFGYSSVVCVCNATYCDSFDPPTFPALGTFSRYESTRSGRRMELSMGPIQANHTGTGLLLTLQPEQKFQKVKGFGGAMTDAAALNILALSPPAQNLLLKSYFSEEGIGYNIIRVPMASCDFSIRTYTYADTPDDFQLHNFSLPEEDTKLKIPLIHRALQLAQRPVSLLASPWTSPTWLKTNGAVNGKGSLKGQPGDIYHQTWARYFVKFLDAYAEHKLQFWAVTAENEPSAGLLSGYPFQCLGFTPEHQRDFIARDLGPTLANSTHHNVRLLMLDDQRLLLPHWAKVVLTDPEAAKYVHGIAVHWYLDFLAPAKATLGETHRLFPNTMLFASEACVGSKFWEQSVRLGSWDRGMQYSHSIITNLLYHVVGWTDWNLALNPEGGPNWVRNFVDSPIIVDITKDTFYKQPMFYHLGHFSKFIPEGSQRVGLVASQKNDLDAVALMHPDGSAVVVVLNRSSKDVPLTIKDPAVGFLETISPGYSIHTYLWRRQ
Assay: In situ labelling of wild-type HEK293T cells, GBA1
Type: cell-based
Settings: wild-type HEK293T intact cells; for GBA1 labelling in situ: 500 nM, 2.5 h
Procedure: Importantly, the GBA2 selectivity of β-D-Araf ABPs 3–5 was maintained during in situ labelling of wild-type HEK293T cells (ESI Fig. S9 ^†). […] Even after 24 h incubation, similar results were obtained: ABP 4 selectively labelled GBA2 at 10 nM, with only slight concomitant GBA1 labelling at concentrations higher than 100 nM (ESI Fig. S10 ^†). Selective GBA2 labelling by ABP 3 and 4 finally was also observed in human retinal pigment epithelial-1 cells (Fig. 5C).
Figure S9. Fluorescent gel images of in situ labelling of wild-type HEK293T cells by β-D-Araf aziridine ABPs 3-5.
β-D-Araf ABPs were firstly incubated with intact wild-type HEK293T cells for 1 or 2.5 h (1st incubation) and then cells were harvested. Lysis buffers containing different competitors (1 µM ABP or cyclophellitol inhibitor (CP, 1 µM for 150 nM set, 2 µM for 500 nM set)) was added to the harvested cells, cells were lysed, and lysate was incubated on ice for 30 min and additional 30 min at 37 °C (2nd incubation). Labelling of residual β-glucosidases was performed using ABPs 7 (for 3), 8 (for 4), or 9 (for 5) at 500 nM.
Figure S10. Fluorescent gel images of A) intact HEK293T wild-type cells labeled by β-D-Araf aziridine ABPs 3-5. […]
2.13 In situ intact cells labelling and inhibition assays
Confluent HEK293T cells expressing human endogenous GBA1 and GBA2/GBA3 OE, wild-type HEK293T cells or wild-type human retinal pigment epithelial-1 (RPE-1) cells were cultured in 12-well plates for duplicates or triplicates with (or without) compounds (3-5) for the described incubation times using the conditions as described for the cell culture. The cells were harvested as described in the cell lysis method. After determination of the protein concentration by BCA assay, the lysates were adjusted to 10 μL by addition of potassium phosphate buffer in order to normalize the amount of protein loaded (to 10-25 μg total protein per measurement), and subjected to the ABPP as […]
2.14 In situ visualization of GBA2 for confocal microscopy
HEK293T WT, GBA2 overexpression (GBA1 endogenous and GBA2 OE) and GBA1/GBA2 knockout (KO) GBA2 overexpression (GBA1/2 KO GBA2 OE) cells were cultured in DMEM High Glucose (Capricon Scientific) supplemented with 10% fetal calf serum, 1% (v/v) GlutaMax and 0.1% (w/v) penicillin/streptomycin.2,6 Cells were grown to approximately 75% confluence on Ø15 mm glass coverslips coated with 0.1 mg/ml poly-L-Lysine.
Samples were pretreated for 16 h with 100 nM of a GBA1 inhibitor (218, 0.5% DMSO), 500 nM of a GBA1 and GBA2 inhibitor (229, 0.5% DMSO) or with 0.5% DMSO alone. GBA2 was subsequently incubated by the addition of 50 nM ABP 4 (BODIPY-Red) to cells for 2 h at 37 °C with 5% CO2.
Unbound probe was washed away with PBS and cells were fixed with 4% paraformaldehyde (Alfa Aesar)/PBS for 15 min at RT. […]

CC1=CC(C)=[N+]2C1=C(CCCCc1cn(CCCCCCCCN3[C@@H]4[C@H](CO)[C@@H](O)[C@H](O)[C@@H]43)nn1)c1c(C)cc(C)n1[B-]2(F)F (stereo partly shown) [ABP 3]
GBA1 labelling in situ: did not visibly label GBA1

COc1ccc(C2=[N+]3C(=C(CCCCc4cn(CCCCCCCCN5[C@@H]6[C@H](CO)[C@@H](O)[C@H](O)[C@@H]65)nn4)c4ccc(-c5ccc(OC)cc5)n4[B-]3(F)F)C=C2)cc1 (stereo partly shown) [ABP 4]
GBA1 labelling in situ: did not visibly label GBA1
Concentrations giving slight concomitant GBA1 labelling in situ (24 h incubation): higher than 100 nM

CN1/C(=C/C=C/C=C/C2=[N+](CCCCCC(=O)NCc3cn(CCCCCCCCN4[C@@H]5[C@H](CO)[C@@H](O)[C@H](O)[C@@H]54)nn3)c3ccccc3C2(C)C)C(C)(C)c2ccccc21 (stereo partly shown) [ABP 5]
GBA1 labelling in situ: GBA1 labelling only occurred when using a high concentration (500 nM) and longer incubation time (2.5 h)
